Consider one molecule from US20210186905A1, “ENHANCING T-CELL FUNCTION AND TREATING A T-CELL DYSFUNCTIONAL DISORDER WITH A COMBINATION OF AN LSD INHIBITOR AND A PD-1 BINDING ANTAGONIST” (EpiAxis Therapeutic Pty Ltd, priority 2017, published 2021).

Test [1] has as its system T-cell activation and exhaustion genes. Nature of the test: Nanostring transcript analysis of CD8+ T-cells from 4T1 metastatic mouse model. It counts as in vivo. How it is done: FIG. 5 is a graphical representation showing that dual epigenetic-immunotherapy re-educates and re-programs the T-cell repertoire. A. Cells stimulated with PMA/ionomycin for 4 hours in the presence of Brefeldin A. Cells were surfaced stained with CD45, CD3, CD4, CD8, CD44, CD62L (for naïve, effector and central memory), CD25 and FoxP3 (for Tregs) and analyzed via Flow cytometry. A Mann-Whitney non-parametric t-test was used to compare control vs other groups (*p<0.05, n=2-5). […] Representative images for each dataset are shown. TNFI values for EOMES, TBET and Ki67 measured using Image) to select the nucleus minus background. Graphs represent the % change of expression relative to control group for CD8^+ T-cells. (n>20 individual cells, Group A=Control, Group C: PD1 (10 mg/kg), Group D: Phenelzine (40 mg/kg), Group F: PD1+Phenelzine). C. Cells stimulated with PMA/ionomycin for 4 hours in the presence of Brefeldin A. Cell were surfaced stained with CD45, CD3, CD4, CD8 and intracellular staining of IFN-γ, IL-2 and TNF-α in the presence of Brefeldin A and analyzed via flow cytometry. A Mann-Whitney non-parametric t-test was used to compare control vs other groups (*p<0.05, **p<0.008; n=2-5). […] Representative images for each dataset are shown. TNFI values for TNFα and IFNγ measured using ImageJ to select the nucleus minus background. […]

In the next test the test system is LSD1p, CSV and ALDH1A. Description: Immunofluorescence of FFPE tissue, metastatic lesions in lung or liver of 4T1 mice. It counts as in vivo, mouse. How it is done: FIG. 3 is a photographic and graphical representation showing that dual epigenetic-immunotherapy inhibits metastatic progression in 4T1 Mouse model. A. 4T1 Treatment FFPE from each treatment group (Group A=Control, Group C: PD1 (10 mg/kg), Group D: Phenelzine (40 mg/kg), Group F: PD1+Phenelzine) and for each target organ (Lung and Liver) was processed for 3D high resolution microscopy using the BondRX. FFPE tissues were fixed and Immunofluorescence microscopy was performed probing with rabbit LSD1(S111p); mouse anti CSV and goat anti […] and visualized with a donkey anti-rabbit AF 488, anti-mouse 568 and anti-goat 633. Cover slips were mounted on glass microscope slides with ProLong Diamond Antifade reagent (Life Technologies). Protein targets were localized by confocal laser scanning microscopy. Single 0.5 μm sections were obtained using a Leica DMI8 microscope using 100× oil immersion lens running LAX software. The final image was obtained by averaging four sequential images of the same section. Digital images were analyzed using ImageJ software (ImageJ, NIH, Bethesda, Md., USA) to determine the either the Total Nuclear Fluorescent Intensity (TNFI), the Total Cytoplasmic Fluorescent Intensity (TCFI) or total Fluorescent Intensity (TFI). N=40 cells were counted. B. Graphs for both organs are presented here. Graphs represent the TNFI values for LSD1, ALDH1A and TCFI for CSV measured using ImageJ to select the nucleus minus background. Representative images for the Lung dataset are shown.
The expression of a mesenchymal, stem-like biomarker panel was examined in metastatic sites in a 4T1 mouse model treated with vehicle control (Group A), anti-PD1 antibody (10 mg/kg) (Group C), phenelzine sulfate (40 mg/kg) (Group D) or a combination of both (Group F). The present inventors examined the presence of metastatic lesions in the lung or liver and measured the immunofluorescence (IF) of formalin-fixed paraffin-embedded (FFPE) tissue examining the IF intensity of LSD1p, CSV and ALDH1A.
4T1 Treatment FFPE from each treatment group primary tumor biopsies were processed in the BondRX for IFA staining using the instrument protocol: ER2 for 20 mins at 100° C. with Epitope Retrieval Solution 2 which is a pH-9 EDTA based retrieval solution followed by probing with rabbit anti LSD1 (S111p); mouse anti CSV and goat anti ALDH1A and visualized with a donkey anti-rabbit AF 488, anti-mouse 568 and anti-goat 633 or anti rat 633. Cover slips were mounted on glass microscope slides with ProLong Diamond Antifade reagent (Life Technologies). Protein targets were localized by confocal laser scanning microscopy. Single 0.5 μm sections were obtained using a Leica DMI8 microscope using 100× oil immersion lens running LAX software. The final image was obtained by averaging four sequential images of the same section. Digital images were analysed using ImageJ software (ImageJ, NIH, Bethesda, Md., USA) to determine the either the Total Nuclear Fluorescent Intensity (TNFI), the Total Cytoplasmic Fluorescent Intensity (TCFI) or total Fluorescent Intensity (TFI).

Where a name gives a salt, the structure may show the parent alone.

As to `NNCCc1ccccc1` (racemic) [phenelzine sulfate, (±)-2-phenylethylhydrazine], the “exhaustive signature genes such as CTLA4 and LAG3” value in test [1] was “inhibited”. Further, in the test on LSD1p, CSV and ALDH1A (liver lesions), the ALDH1A expression entry is listed as “strongly inhibited”, the CSV expression result is “strongly inhibited” and the “LSD1p IF intensity” value is “strongly inhibited”. In the test with LSD1p, CSV and ALDH1A (lung lesions), the ALDH1A expression entry is on record as “strongly inhibited”, the CSV expression entry is on record as “strongly inhibited” and the “LSD1p IF intensity” value is “strongly inhibited”.
